Reference: the supplement of paper PMC10307832

How the values were obtained:
Experiment in all cases: relative viability (nuclei count vs DMSO), 5 days (fraction); higher = more cells survive
FG-4592 + Luminespib = compound: Cc1nc(C(=O)NCC(=O)O)c(O)c2ccc(Oc3ccccc3)cc12 [FG-4592] + CCNC(=O)c1noc(-c2cc(C(C)C)c(O)cc2O)c1-c1ccc(CN2CCOCC2)cc1 [Luminespib] (partner 0.01 µM)
Outline: (§1)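 Lung cancer cell lines were pin-tool dosed in 1536-well plates on the day after seeding, with either a lone drug or a fixed anchor-drug dose plus five library-drug doses (not always all listed) in √10 steps. Nuclei were counted on 4× images after 5 days. Relative viability is the ratio of treated-well to vehicle-well nuclei counts, with each value a median of duplicate plates.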

IU1-47 + Linsitinib = compound: CC1=CC(=C(N1C2=CC=C(C=C2)Cl)C)C(=O)CN3CCCCC3 [IU1-47] + C[C@]1(O)C[C@@H](c2nc(-c3ccc4ccc(-c5ccccc5)nc4c3)c3c(N)nccn32)C1 [Linsitinib] (partner 1 µM)
Outline: as §1

IU1-47 + OSI-027 = compound: CC1=CC(=C(N1C2=CC=C(C=C2)Cl)C)C(=O)CN3CCCCC3 [IU1-47] + COc1cccc2cc(-c3nc([C@H]4CC[C@H](C(=O)O)CC4)n4ncnc(N)c34)[nH]c12 [OSI-027] (partner 0.5 µM)
Outline: as §1

IU1-47 + Phenformin = compound: CC1=CC(=C(N1C2=CC=C(C=C2)Cl)C)C(=O)CN3CCCCC3 [IU1-47] + N=C(N)NC(=N)NCCc1ccccc1 [Phenformin] (partner 250 µM)
Outline: as §1

Row | Cell Line | relative viability (FG-4592 + Luminespib; first compound 0.08 µM) | relative viability (FG-4592 + Luminespib; first compound 0.253 µM) | relative viability (FG-4592 + Luminespib; first compound 0.8 µM) | relative viability (FG-4592 + Luminespib; first compound 2.53 µM) | relative viability (FG-4592 + Luminespib; first compound 8 µM) | relative viability (IU1-47 + Linsitinib; first compound 0.08 µM) | relative viability (IU1-47 + Linsitinib; first compound 0.253 µM) | relative viability (IU1-47 + Linsitinib; first compound 0.8 µM) | relative viability (IU1-47 + Linsitinib; first compound 8 µM) | relative viability (IU1-47 + OSI-027; first compound 0.08 µM) | relative viability (IU1-47 + OSI-027; first compound 0.253 µM) | relative viability (IU1-47 + OSI-027; first compound 0.8 µM) | relative viability (IU1-47 + OSI-027; first compound 2.53 µM) | relative viability (IU1-47 + OSI-027; first compound 8 µM) | relative viability (IU1-47 + Phenformin; first compound 0.08 µM) | relative viability (IU1-47 + Phenformin; first compound 0.253 µM) | relative viability (IU1-47 + Phenformin; first compound 0.8 µM) | relative viability (IU1-47 + Phenformin; first compound 2.53 µM) | relative viability (IU1-47 + Phenformin; first compound 8 µM) | relative viability (IU1-47 + Linsitinib; first compound 2.53 µM)
1 | NCI-H1944 | 0.762 | 0.716 | 0.728 | 0.891 | 0.763 | 1.23 | 1.2 | 1.13 | 1.1 | 0.401 | 0.357 | 0.411 | 0.444 | 0.376 | 0.2 | 0.192 | 0.199 | 0.216 | 0.168 | –
2 | EPLC-272H | 0.455 | 0.241 | 0.212 | 0.295 | 0.228 | 1.24 | 1.27 | 1.4 | 1.16 | 0.326 | 0.325 | 0.253 | – | 0.259 | 0.294 | 0.298 | 0.23 | – | 0.243 | –
3 | NCI-H1915 | 0.721 | 0.828 | 0.911 | 0.781 | 0.697 | 1.15 | 1.12 | 1.15 | 1.14 | 0.614 | 0.626 | 0.599 | – | 0.581 | 0.373 | 0.354 | 0.342 | – | 0.332 | –
4 | NCI-H596 | 1.14 | 1.08 | 0.886 | 1.15 | 0.676 | 1.17 | 1.11 | 1.02 | 0.934 | 0.817 | 0.62 | 0.743 | 0.814 | 0.739 | 0.786 | 0.61 | 0.78 | 0.709 | 0.677 | 0.984
5 | NCI-H322M | 0.82 | 0.841 | 0.666 | 0.818 | 0.623 | 1 | 0.88 | 1.03 | 0.887 | 0.677 | 0.553 | 0.632 | 0.568 | 0.553 | 0.825 | 0.768 | 0.789 | 0.809 | 0.633 | 0.927
6 | NCI-H2228 | 0.151 | 0.181 | 0.174 | 0.113 | 0.16 | 0.586 | 0.555 | 0.752 | 0.414 | 0.619 | 0.581 | 0.662 | 0.368 | 0.39 | 0.413 | 0.434 | 0.315 | 0.32 | 0.262 | 0.521
7 | NCI-H647 | 0.183 | 0.181 | 0.174 | 0.201 | 0.109 | 1.22 | 1.2 | 1.12 | 1.01 | 0.744 | 0.605 | – | 0.7 | 0.478 | 0.449 | 0.597 | – | 0.553 | 0.238 | 1.19
8 | SK-MES-1 | 0.837 | 0.721 | 0.683 | 0.794 | 0.785 | 1.13 | 1.31 | 1.12 | 1.11 | 0.668 | 0.674 | 0.606 | 0.348 | 0.509 | 0.729 | 0.76 | 0.66 | 0.662 | 0.575 | 1.01
9 | NCI-H2085 | 0.439 | 0.47 | 0.389 | 0.426 | 0.462 | 0.828 | 0.917 | 1.06 | 0.846 | 0.724 | 0.748 | 0.872 | 0.531 | 0.729 | 0.736 | 0.711 | 0.713 | 0.771 | 0.675 | 0.912
10 | SW 1573 | 0.224 | 0.547 | 0.186 | 0.415 | 0.223 | 0.942 | 0.674 | 0.694 | 0.843 | 0.675 | 0.618 | 0.583 | 0.216 | 0.607 | 0.394 | 0.353 | 0.367 | 0.421 | 0.382 | 0.746
11 | NCI-H727 | 0.341 | 0.237 | 0.335 | 1.02 | 0.326 | 0.315 | – | 0.274 | 0.269 | 0.634 | 0.659 | 0.724 | 0.525 | 0.454 | 0.675 | 0.712 | 0.56 | 0.63 | 0.387 | 0.221
12 | NCI-H441 | 0.314 | 0.307 | 0.307 | 0.443 | 0.287 | 0.703 | 0.49 | 0.594 | 0.44 | 0.74 | 0.724 | 0.572 | 0.535 | 0.676 | 0.994 | 0.978 | 0.787 | 0.887 | 0.787 | 0.438
13 | LOU-NH91 | 0.275 | 0.342 | 0.299 | 0.325 | 0.367 | 1.07 | 1.06 | 0.939 | 0.868 | 0.798 | 0.776 | 0.728 | 0.726 | 0.685 | 0.855 | 0.942 | 0.771 | 0.672 | 0.698 | 0.907
14 | NCI-H3122 | 0.079 | 0.108 | 0.0631 | 0.092 | 0.0857 | 1 | 1.07 | 1.08 | 1.01 | 1.07 | 0.961 | 1.05 | 0.987 | 0.954 | 0.398 | 0.373 | 0.366 | 0.372 | 0.347 | 1.15
15 | NCI-H460 | 0.0351 | 0.0212 | 0.0354 | 0.0343 | 0.0187 | 1.21 | 1.1 | 0.986 | 0.559 | 0.795 | 0.737 | 0.835 | 0.822 | 0.505 | 0.599 | 0.536 | 0.614 | 0.532 | 0.313 | 0.665
16 | NCI-H650 | 0.766 | 0.797 | 0.597 | 0.746 | 0.713 | 0.831 | 0.966 | 0.924 | 0.875 | 0.507 | 0.55 | 0.487 | 0.482 | 0.441 | 0.489 | 0.483 | 0.466 | 0.491 | 0.476 | 0.796
17 | NCI-H661 | 0.94 | 0.888 | 0.961 | 0.863 | 0.951 | 0.622 | 0.644 | 0.596 | 0.474 | 0.81 | 0.753 | 0.63 | 0.799 | 0.647 | 0.286 | 0.295 | 0.28 | 0.245 | 0.291 | 0.419
